Measurements taken from patent US8415357B2 (Canbas Co., Ltd., priority 2007, dated 2013).

tested on: Jurkat cells; assay: Adaptation to G2 cell cycle arrest (G1 increment) in X-ray pre-arrested Jurkat cells, flow cytometry; type: cell-based, human; settings: Homo sapiens, Jurkat, 24 h, Table 1; concentration causing half-maximal increase of % cells in G1 phase (G1 increment); Jurkat pre-arrested by 10 Gy X-ray, 24 hours with compound
Experimental: Phenotype-based screening was used to measure the ability of compounds of the invention to cause adaptation to G2 cell cycle arrest in G2-arrested cells. Adaptation to G2 cell cycle arrest and re-entry into the cell cycle can result in death of the previously G2-arrested cell, or suppression (inhibition) of further proliferation of the previously G2-arrested cell. In a non-limiting embodiment, the ability to cause adaptation to G2 cell cycle arrest was measured by contacting cells in which G2 arrest had been induced by irradiation (e.g., gamma (γ) radiation or X-ray radiation), with compounds of the invention at various concentrations and, for each compound at each concentration, determining the percentage of cells that escaped G2 arrest and re-entered the cell cycle, by determining the percentage of cells in G1 phase. The IC50 value for each compound was calculated as the dosage (usually in μM) that caused half-maximal increase of the percentage of cells in G1 phase (the G1 increment) measured for that compound. Certain invention compounds were initially identified by phenotype-based screening of small molecule libraries for activity against G2-arrested cells as described above.
Jurkat cells (a human T cell lymphoma-derived cell line) were arrested at the G2 phase by X-ray irradiation at 10 Gy, and cultured for 24 hours in 10% fetal calf serum (FCS)/RPMI1640 at 37° C. with 5% CO2/air. (FCS was from Equitech-Bio, Kerrville, Tex., and RPMI1640 was from Sigma-Aldrich, St. Louis, Mo.) Test compounds were added to the medium at the indicated doses, and the cells were cultured under the conditions described above, for an additional 24 hours before harvesting.
Harvested cells were stained with Krishan's buffer (0.1% sodium citrate, 50 μg/ml propidium iodide, 20 μg/ml RNase A, 0.5% Nonidet P-40) and analyzed by flow cytometry (BD Biosciences, Franklin Lakes, N.J.) to identify the cell stage of each cell in the sample. Cells in G1 phase were identified by having […] (2N) DNA content.
The IC50 value for each compound was calculated as the dosage showing half maximal activity to induce the increase of the percentage of cells in G1 phase (the G1 increment). IC50 values were used to measure the activity of compounds and to determine structure-activity relationships.
Pre-arrested Jurkat cells were prepared as described in Example 1. Briefly, Jurkat cells were subjected to X-ray irradiation at a dose of 10 Gy, and cultured for 24 hours in 10% fetal calf serum (FCS)/RPMI1640 at 37° C. with 5% CO2/air, after which time cells were exposed to various concentrations of test compounds, and cultured under the conditions described above for an additional 24 hours before harvesting. Harvested cells were stained with Krishan's buffer (0.1% sodium citrate, 50 μg/ml propidium iodide, 20 μg/ml RNase A, 0.5% Nonidet P-40) and analyzed by flow cytometry (BD Biosciences, Franklin Lakes, N.J.) to identify the cell stage of each cell in the sample. Cells in G1 phase were identified by having […] (2N) DNA content.
The IC50 value for each compound was calculated as the dosage (concentration in μM) that caused half-maximal increase of the percentage of cells in G1 phase (the G1 increment) measured for that test compound. Table 1 below presents the structure, mass, 1H NMR values, and […] values for representative compounds.
The IC50 value for each compound was calculated as the dosage (concentration in μM) that caused half-maximal increase of the percentage of cells in G1 phase (the G1 increment) measured for that test compound. Table 2 below presents structures, IUPAC name, molecular formula, ID number (“SCID”), mass, 1H NMR values, and IC50 values for representative compounds. Table 3 presents structures, IUPAC name, molecular formula, ID number (“SCID”), mass, 1H NMR values, and IC50 values for further representative compounds.

Compared with `CC1=C(C)C(=O)N(N(C)c2cc(C(F)(F)F)cc(C)n2)C1=O` [Compound S00084], `CC1=C(C)C(=O)N(Nc2cc(C(F)(F)F)ccc2Br)C1=O` [Compound S00623] is 2-fold higher in IC50: 5000 nM for the first, 10000 nM for the second. The first is the more potent here.

Going from `CC1=C(C)C(=O)N(C(C)c2ccc(Br)cc2)C1=O` (stereo not shown) [Compound S00543] to `CC1=C(C)C(=O)N(n2ccc3cc(C)ccc32)C1=O` [Compound S00663], the IC50 falls from 60000 nM to 40000 nM (1.5-fold).

Compared with `O=C1C(Cl)=C(Cl)C(=O)N1Nc1cccc(C(F)(F)F)c1` [Compound S00406], `CC1=C(C)C(=O)N(Nc2ccc(Cl)c(C(F)(F)F)c2)C1=O` [Compound S00405] is 32-fold lower in IC50: 80000 nM for the first, 2500 nM for the second. The second is the more potent here.

`CC1=C(C)C(=O)N(Cc2ccc(C(F)(F)F)cn2)C1=O` [Compound S00110] and `CC1=C(C)C(=O)N(N2CCc3cc(C)ccc32)C1=O` [Compound S00662] are the same in IC50: 60000 nM for the first, 60000 nM for the second.

same assay, conditions: Homo sapiens, Jurkat, 24 h, Table 2; concentration causing half-maximal increase of % cells in G1 phase (G1 increment); Jurkat pre-arrested by 10 Gy X-ray, 24 hours with compound

Going from `CC1=C(C)C(=O)N(Nc2cc(Cl)c3cc(C)ccc3n2)C1=O` [Compound S00935, 1-[(4-chloro-6-methyl(2-quinolyl))amino]-3,4-dimethylazoline-2,5-dione] to `CC1=C(C)C(=O)N(Nc2cc(C(F)(F)F)c3ccc(Cl)c(Cl)c3n2)C1=O` [Compound S01455, 1-{[7,8-dichloro-4-(trifluoromethyl)(2-quinolyl)]amino}-3,4-dimethylazoline-2,5-dione], the IC50 falls from 625 nM to 156 nM (4-fold).

`CC1=C(C)C(=O)N(Nc2cc(CN3CCN(S(=O)(=O)c4ccccc4)CC3)c3ccc(Br)cc3n2)C1=O` [Compound S01822, 1-[(7-bromo-4-{[4-(phenylsulfonyl)piperazinyl]methyl}(2-quinolyl))amino]-3,4-dimethylazoline-2,5-dione] and `CC1=C(C)C(=O)N(Nc2cc(CN3CCN(Cc4ccccc4)CC3)c3ccc(Br)cc3n2)C1=O` [Compound S01268, 1-[(7-bromo-4-{[4-benzylpiperazinyl]methyl}(2-quinolyl))amino]-3,4-dimethylazoline-2,5-dione] are the same in IC50: 625 nM for the first, 625 nM for the second.

Compared with `CC(=O)N(c1ccc(C(F)(F)F)c(Cl)n1)N1C(=O)C(C)=C(C)C1=O` [Compound S01473, N-(3,4-dimethyl-2,5-dioxoazolinyl)-N-[6-chloro-5-(trifluoromethyl) (2-pyridyl)]acetamide], `COCC1=C(C)C(=O)N(N(C)c2ccc(C(F)(F)F)c(Cl)n2)C1=O` [Compound S01600, 1-{[6-chloro-5-(trifluoromethyl)(2-pyridyl)]methylamino}-3-(methoxymethyl)-4-methylazoline-2,5-dione] is 3.1-fold higher in IC50: 200 nM for the first, 625 nM for the second.

Compared with `CCN(CC)C(=O)CCC1=C(C)C(=O)N(Nc2ccc(C(F)(F)F)c(Cl)n2)C1=O` [Compound S01711, 3-(1-{[6-chloro-5-(trifluoromethyl)(2-pyridyl)]amino}-4-methyl-2,5-dioxoazolin-3-yl)-N,N-diethylpropanamide], `CCOC(=O)CCC1=C(C)C(=O)N(Nc2ccc(C(F)(F)F)c(Cl)n2)C1=O` [Compound S01861, Ethyl 3-(1-{[6-chloro-5-(trifluoromethyl)(2-pyridyl)]amino}-4-methyl-2,5-dioxoazolin-3-yl) propanoate] is 3.1-fold lower in IC50: 156 nM for the first, 50 nM for the second. The second is the more potent here.

`CC1=C(C)C(=O)N(Nc2cc(CN3CCN(C(=O)c4ccc(N(C)C)cc4)CC3)c3ccc(Br)cc3n2)C1=O` [Compound S01880, 1-({4-[(4-{[4-(dimethylamino)phenyl]carbonyl}piperazinyl)methyl]-7-bromo (2-quinolyl)}amino)-3,4-dimethylazoline-2,5-dione] and `COC(=O)CCC1=C(C)C(=O)N(Nc2cc(CN3CCN(C(=O)OC(C)(C)C)CC3)c3ccc(Br)cc3n2)C1=O` [Compound S01865, Methyl 3-(1-{[4-({4-[(tert-butyl)oxycarbonyl]piperazinyl}methyl)-7-bromo (2-quinolyl)]amino}-4-methyl-2,5-dioxoazolin-3-yl)propanoate] are the same in IC50: 312 nM for the first, 312 nM for the second.

For `COC(=O)CCC1=C(C)C(=O)N(Nc2ccc(C(F)(F)F)c(Cl)n2)C1=O` [Compound S01648, Methyl 3-(1-{[6-chloro-5-(trifluoromethyl)(2-pyridyl)]amino}-4-methyl-2,5-dioxoazolin-3-yl)propanoate], the IC50 was 78 nM.
